The values that follow come from PMC10610214 (Pharmaceuticals, 2023).

Usually inhibition stands for how much of the control response was suppressed. Broadly, the IC50 is the concentration needed to halve the response being measured.

For one data set, the target named is Aβ1-42 (Homo sapiens, UniProt P05067). The experiment in a line: Self-induced Aβ1-42 aggregation, thioflavin T fluorescence. The data set is classed as biochemical. Also on record: final concentrations of 20 μM of Aβ1-42 and 100 μM of test compound; purchased Beyotime Institute of Biotechnology. Conditions: read-out: Inhibition of Self-Induced Aβ Aggregation (%). The protocol:
The inhibitory effect of compounds on Aβ42 was determined by Thioflavin T (ThT) fluorescence assay. In short, the dilution of Aβ42 solution (Beyotime Biotechnology, Hang Zhou, China) and test compounds was carried out with phosphate buffer (50 mM, pH 7.4) to obtain final concentrations of 20 μM of Aβ1-42 and 100 μM of test compound, such as curcumin (20 μM). The mixture was incubated in 96-well plates at room temperature for 48 h in the dark. When the incubation was complete, the samples were diluted to 200 µL (final volume) with glycine–NaOH buffer (50 mM, pH 8.0) containing 5 μM ThT.

The test system of another data set is PC12 cells. The experiment in a line: Cytotoxicity in PC12 cells (MTT). The class given is cell-based. How it is done: The cytotoxicity and neuroprotective effects of the compounds on PC12 cells were evaluated by MTT assay. PC12 cells were seeded into a 96-well plate at a density of 5.0 × 10^3 cells per well. After the cells were incubated overnight, the old medium was discarded. The cells were incubated for another 24 h with fresh medium containing compounds at a concentration of 30 or 50 μM. A total of 20 μL of MTT solution (5 mg/mL, Sigma-Aldrich, Shanghai, China) was then added per well, and the cells were incubated for an additional 4 h. Afterwards, the supernatant was removed and 150 μL of DMSO was added to solubilize formazan crystals. The 96-well plate was placed on the shaker for 10–15 min, and then the absorbance at 492 nm was measured by a microplate reader.

For the next data set, the system named is H2O2-induced PC12 cells. Kind of data set: Neuroprotection against H2O2-induced PC12 cell injury (MTT). The data set is classed as cell-based. The following applies: H2O2 250 μM, mean ± SEM. The protocol:
Neuroprotection assay is similar to cytotoxicity. Oxidative cellular damage caused by H2O2 has become one of the important methods to study oxidative damage in neural cells. PC12 cells were seeded into a 96-well plate at a density of 5.0 × 10^3 cells per well. After the cells were incubated overnight, the old medium was discarded. […] After incubating overnight, 20 μL of MTT solution (5 mg/mL, Sigma-Aldrich) was added per well, and the cells were incubated for an additional 4 h. Afterwards, the supernatant was removed and 150 μL of DMSO was added. The 96-well plate was placed on the shaker for 10–15 min, and then the absorbance at 492 nm was measured by a microplate reader.

The next data set deals with T1, AChE (from electric eel) (Electrophorus electricus, UniProt O42275).
T1 construct: AChE (from electric eel); purchased Sigma Chemical Company (St. Louis, MO, USA)
Kind of data set: biochemical. The following applies: for IC50: AChE from electric eel, mean ± SD of three experiments, read-out: AChE Inhibition (IC50). The protocol:
(§1) The ChE inhibitory activity of the test compounds was determined using the modified Ellman’s method. The compounds were dissolved in DMSO (10 mmol/L) and then diluted with PB (phosphate buffer) solution to attain a range of final concentrations. […] Briefly, 100 μL of different concentrations of the test or standard compounds and 100 μL of AChE/BuChE (0.5 U/mL) were added into 48-well plates and then co-incubated at 37 °C for 30 min. […] All concentrations mentioned are final.

The target in data set [1] is T2, BuChE (from equine serum) (Equus caballus, UniProt P81908).
T2 construct: BuChE (from equine serum); purchased Sigma Chemical Company (St. Louis, MO, USA); host or cells: equine serum
The experiment in a line: biochemical. The following applies: mean ± SD of three experiments, read-out: BuChE Inhibition (IC50). How it is done: as §1

Data set [2] relates to adjuvant-induced arthritis (AIA) rats. Also on record: method as in PMID 36450214. The following applies: cited from earlier work.
A short description of a further data set: in vitro. The data set is classed as in vitro ADME, SD rats. The following applies: SD rat liver microsomes. How it is done: The incubation was terminated at different time points by adding 0.5 mL of ice-cold CH3CN. A parallel incubation was performed in the absence of a NADPH-regenerating system with microsomes as the negative control, and the reactions were terminated after the corresponding time incubation. After centrifugation with 12,500 rpm at 4 °C for 10 min, the supernatant was directly analyzed by the HPLC UV systems (Agilent HPLC 1200 instrument). Three independent experiments were performed in triplicate.
(Liver microsomes are a subcellular fraction often used to study metabolism.)

Another data set deals with SY5Y cells. Kind of data set: H2O2-induced intracellular ROS in SY5Y cells (DCFH-DA). The data set is classed as cell-based. The following applies: 100 μM, vs untreated control 100, H2O2 group 151.76. The protocol:
A 2’, 7’-dichlorofluorescein diacetate (DCFH-DA, Sigma Aldrich) probe was applied to determine intracellular ROS production. It can penetrate cells and be rapidly oxidized by intracellular ROS to highly fluorescent 2′,7′-dichlorofluorescein (DCF). Intracellular fluorescence intensity is proportional to intracellular ROS levels. PC12 cells or SY5Y cells were seeded into a black 96-well plate at a density of 1.0 × 10^4 cells per well. After the cells were incubated overnight, the old medium was discarded. PC12 cells or SY5Y cells were cultured in a medium containing test compound 4h with or without various concentrations (1, 7.5, 15, 30, and 50 μM) for 6 h. […] Then, they were washed again with PBS, then DCFH-DA […] probe was added to each well and incubated at 37 °C for 1 h. After the cells were washed 3 times, the fluorescence intensity was measured in a Synergy HTX fluorescence microplate reader (λex = 485 nm, λem = 528 nm).

A further data set in a line: DPPH radical scavenging. The following applies: vs no-compound group. The class given is physicochemical. The protocol:
DPPH is a commercially available stable organic nitrogen radical with maximum UV absorption at 515 nm. After reduction, the color of the solution fades (absorbance decreases). Therefore, this method was used to evaluate the antioxidant capacity of the compounds. In short, 50 μL of DPPH (140 μM) and 50 μL of different concentrations (10, 100, and 1000 μM) of compound 4h were added together in a 96-well plate and then incubated in the dark at 37 °C for 2 h. The absorbance was measured at 515 nm through the multifunctional microplate reader. The scavenging rate (SR) of DPPH radicals was calculated by the following formula: SR = (1 − Ac/A0) × 100%, where “Ac” is the absorbance of DPPH and the compound solution incubating, and “A0” is the absorbance of the DPPH radical-ethanol solution alone. The experimental results are expressed as the average of three tests.
(The DPPH test is a chemical assay of radical scavenging.)

The target of another data set is T3, BuChE (Equus caballus, UniProt P81908).
T3 construct: BuChE (from equine serum); purchased Sigma Chemical Company (St. Louis, MO, USA); host or cells: equine serum
Kind of data set: Reversibility of BuChE inhibition, dilution method. The class given is biochemical. The following applies: control 100. The protocol:
The activities of the diluted residual enzymes were measured by Ellman’s modified method.
Reversibility studies were performed using a modified Ellman’s dilution method to measure the activity of the diluted residual enzyme. The AChE/BuChE (0.5 U/mL), ATCI/BTCI (0.01 M) and DTNB (0.01 M) were diluted with phosphate buffer pH = 7.4. […] At the end of incubation, 20 μL of DTNB solution was added to them. […] All the measured results are expressed as the mean ± SEM of the three independent experiments.

Structures are written as SMILES. Some results are limits rather than exact numbers.

T2 sequence (P81908 whole entry): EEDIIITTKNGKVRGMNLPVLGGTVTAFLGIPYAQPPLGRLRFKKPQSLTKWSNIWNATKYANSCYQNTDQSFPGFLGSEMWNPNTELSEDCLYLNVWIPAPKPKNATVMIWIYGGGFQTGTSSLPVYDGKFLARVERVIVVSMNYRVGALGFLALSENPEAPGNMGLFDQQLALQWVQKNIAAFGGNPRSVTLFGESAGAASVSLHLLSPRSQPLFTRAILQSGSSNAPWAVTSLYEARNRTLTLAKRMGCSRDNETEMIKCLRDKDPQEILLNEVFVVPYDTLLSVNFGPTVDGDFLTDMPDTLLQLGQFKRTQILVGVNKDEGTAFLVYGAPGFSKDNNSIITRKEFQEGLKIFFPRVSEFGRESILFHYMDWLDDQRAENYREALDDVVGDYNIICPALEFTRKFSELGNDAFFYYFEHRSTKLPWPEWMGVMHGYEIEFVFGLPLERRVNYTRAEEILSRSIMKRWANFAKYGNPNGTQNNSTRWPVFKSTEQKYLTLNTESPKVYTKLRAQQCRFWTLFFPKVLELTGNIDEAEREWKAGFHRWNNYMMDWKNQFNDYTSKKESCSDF
T1 sequence (O42275 24-633): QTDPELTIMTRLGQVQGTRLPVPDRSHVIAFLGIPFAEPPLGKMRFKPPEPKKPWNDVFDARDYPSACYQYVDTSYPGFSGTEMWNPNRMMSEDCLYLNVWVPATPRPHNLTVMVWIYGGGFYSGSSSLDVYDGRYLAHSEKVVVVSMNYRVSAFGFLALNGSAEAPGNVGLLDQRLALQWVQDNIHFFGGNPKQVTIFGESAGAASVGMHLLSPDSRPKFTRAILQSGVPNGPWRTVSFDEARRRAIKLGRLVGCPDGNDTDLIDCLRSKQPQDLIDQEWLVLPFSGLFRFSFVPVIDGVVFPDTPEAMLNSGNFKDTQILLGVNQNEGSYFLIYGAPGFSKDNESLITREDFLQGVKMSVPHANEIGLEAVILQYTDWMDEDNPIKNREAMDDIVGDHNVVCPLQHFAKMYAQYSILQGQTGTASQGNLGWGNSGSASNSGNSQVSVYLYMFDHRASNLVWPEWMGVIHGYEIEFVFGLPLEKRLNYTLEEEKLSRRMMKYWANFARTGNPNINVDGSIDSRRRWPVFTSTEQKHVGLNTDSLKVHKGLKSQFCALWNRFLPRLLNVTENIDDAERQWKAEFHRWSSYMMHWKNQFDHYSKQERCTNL
T3 sequence (P81908 whole entry): as the sequence (P81908 whole entry) above
Aβ1-42, sequence (P05067 672-713 limits assumed): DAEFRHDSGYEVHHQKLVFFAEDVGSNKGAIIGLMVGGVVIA

Regarding `COc1cc(/C=C/C(=O)CC(=O)/C=C/c2ccc(O)c(OC)c2)ccc1O` [Curcumin], the inhibition at 20 µM at Aβ1-42 (curcumin 20 μM (text b32), ThT, 48 h) was found to be 55.4 ± 2.31%.

With `COc1ccc(S(=O)(=O)Nc2ccc3nc4n(c(=O)c3c2)-c2ccccc2C4=O)cc1` [8j], the figures for the “Cell Viability (% of Control)” value in the data set on PC12 cells (compound 30 μM) and in the data set on PC12 cells (compound 50 μM) were 99.9 ± 1.5 % of Control and 98.9 ± 2.1 % of Control, respectively. For the same compound, the “H2O2-Induced PC12 Cell Viability (% of Control)” value in the data set with H2O2-induced PC12 cells (compound 10 μM) was 38.02 ± 3.1 % of Control; with H2O2-induced PC12 cells (compound 30 μM), 47.36 ± 6.1 % of Control. Besides, the results for the IC50 (on AChE (from electric eel); in data set [1]) were > 50 µM and 10.2 ± 2.41 µM, respectively. For the same compound, in data set [2], the “Anti-inflammatory activity in the AIA model” value is “exhibited good anti-inflammatory activity in the AIA model”.

In the case of `C[C@]12CC[C@H]3[C@@H](CCC4=CC(=O)CC[C@@]43C)[C@@H]1CC[C@@H]2O` [Testosterone, reference compound], in the data set “in vitro”, the K was determined as 0.2593 ± 0.04409 min⁻¹ and the T1/2 came out at 2.4 ± 0.5 min.

Turning to `Cc1c(C)c2c(c(C)c1O)CCC(C)(C(=O)O)O2` (stereo not drawn) [Trolox], the “ROS in SY5Y cells (%)” value in the data set with SY5Y cells came to 126.06 ± 2.68%.

On to `CC(=O)Nc1ccc(S(=O)(=O)Nc2ccc3c(c2)C(=O)c2nc4ccccc4c(=O)n2-3)cc1` [4i], for which the figures for the “Cell Viability (% of Control)” value in the data set on PC12 cells (compound 30 μM) and with PC12 cells (compound 50 μM) were 99.6 ± 1.7 % of Control and 98.3 ± 3.0 % of Control, respectively. The figures for the “H2O2-Induced PC12 Cell Viability (% of Control)” value in the data set with H2O2-induced PC12 cells (compound 10 μM) and in the data set with H2O2-induced PC12 cells (compound 30 μM) were 34.43 ± 5.5 % of Control and 40.93 ± 2.9 % of Control, respectively. Moreover, the half-maximal inhibitory concentration (IC50) at AChE (from electric eel) was 8.8 ± 1.23 µM; in data set [1], > 50 µM.

For the compound `CC(C)(C)c1ccc(S(=O)(=O)Nc2ccc3c(c2)C(=O)c2nc4ccccc4c(=O)n2-3)cc1` [4c], the “Cell Viability (% of Control)” value is on record as 99.5 ± 3.1 % of Control with PC12 cells (compound 30 μM) and 98.2 ± 1.7 % of Control in the data set on PC12 cells (compound 50 μM). Besides, the “H2O2-Induced PC12 Cell Viability (% of Control)” value with H2O2-induced PC12 cells (compound 10 μM) was 45.59 ± 0.7 % of Control; in the data set on H2O2-induced PC12 cells (compound 30 μM), 56.4 ± 1.2 % of Control. The half-inhibitory concentration (IC50) on AChE (from electric eel) worked out at 2.56 ± 0.32 µM; in data set [1], 8.13 ± 1.21 µM. Further, the “Selective Index, IC50 (BChE)/IC50 (AChE)” value at AChE (from electric eel) (AChE selectivity index) is given as 3.2.

For the compound `O=C1c2ccccc2-n2c1nc1ccc(NS(=O)(=O)c3ccc(F)cc3)cc1c2=O` [8f], the “Cell Viability (% of Control)” value with PC12 cells (compound 30 μM) was 99.4 ± 1.7 % of Control; in the data set on PC12 cells (compound 50 μM), 98.3 ± 3.0 % of Control. The “H2O2-Induced PC12 Cell Viability (% of Control)” value with H2O2-induced PC12 cells (compound 10 μM) is listed as 34.24 ± 3.5 % of Control; in the data set with H2O2-induced PC12 cells (compound 30 μM), 42.25 ± 1.7 % of Control. Further, the half-maximal inhibitory concentration (IC50) on AChE (from electric eel) was 43 ± 1.12 µM; in data set [1], > 50 µM.

Take `COc1ccc(S(=O)(=O)Nc2ccc3nc4n(c(=O)c3c2)-c2ccccc2C4=O)c(OC)c1` [8l]: the “Cell Viability (% of Control)” value in the data set on PC12 cells (compound 30 μM) is 99.4 ± 1.1 % of Control; in the data set on PC12 cells (compound 50 μM), 98.7 ± 1.3 % of Control. Further, the results for the “H2O2-Induced PC12 Cell Viability (% of Control)” value with H2O2-induced PC12 cells (compound 10 μM) and in the data set on H2O2-induced PC12 cells (compound 30 μM) were 34.61 ± 3.7 % of Control and 38.1 ± 2.7 % of Control, respectively. The half-maximal inhibitory concentration (IC50) (at AChE (from electric eel); in [1]) was > 50 µM each time.

Regarding `O=C1O[C@H]([C@@H](O)CO)C(O)=C1O` [AA, Ascorbic acid, reference compound], the “Concentration of DPPH (%)” value is 77.43 ± 2.76% in “DPPH radical scavenging” (10 μM compound), 58.10 ± 3.42% in the data set “DPPH radical scavenging” (100 μM compound) and 24.2 ± 1.85% in the data set “DPPH radical scavenging” (1000 μM compound).

Consider `COc1cc2c(cc1OC)C(=O)C(CC1CCN(Cc3ccccc3)CC1)C2` (stereo not drawn) [Donepezil, reference compound], for which the inhibition at 100 µM at Aβ1-42 was 41.2 ± 1.87%. For the same compound, the “BuChE activity after dilution (reversibility)” value at BuChE (final inhibitor 0.1 × IC50 after 100-fold dilution) worked out at 94.1 ± 0.61; at BuChE (final inhibitor 1 × IC50 after 100-fold dilution), 89.4 ± 1.49.

Consider `O=C1c2cc(NS(=O)(=O)c3ccccc3OC(F)(F)F)ccc2-n2c1nc1ccccc1c2=O` [4n], for which the figures for the “Cell Viability (% of Control)” value in the data set on PC12 cells (compound 30 μM) and with PC12 cells (compound 50 μM) were 99.9 ± 0.7 % of Control and 99.7 ± 1.8 % of Control, respectively. Further, the “H2O2-Induced PC12 Cell Viability (% of Control)” value with H2O2-induced PC12 cells (compound 10 μM) is recorded as 46.53 ± 1.2 % of Control; in the data set with H2O2-induced PC12 cells (compound 30 μM), 52.84 ± 1.8 % of Control. For the same compound, the IC50 at AChE (from electric eel) was 5.92 ± 0.56 µM; in data set [1], 4.93 ± 0.35 µM.
